Consider 61 compounds from US9422240B2, “Partially saturated nitrogen-containing heterocyclic compound” (TAISHO PHARMACEUTICAL CO., LTD, priority 2012, dated 2016).

Structures can show the parent of a compound that is named as a salt. Where two headings read alike, the source gives them in different places.

Usually IC50 stands for the point on the concentration scale where inhibition reaches its midpoint. A low value points to inhibition by little substance. As a reminder, the inhibition is the drop in the measured response relative to a control, in per cent.

The target in this test is human PHD2 (Homo sapiens (Human), UniProt Q9GZT9). Put plainly: Test 2: human PHD2 inhibitory activity, fluorescence polarization assay of HIF-1α peptide proline hydroxylation. The settings on record: for IC50: human PHD2, fluorescence polarization assay, 20-min incubation at 30° C.; for inhibition at 1 µM: read-out: Percent inhibition (% at 1 μM). Type of test: biochemical. Here is the method: (1) Expression and Preparation of Human PHD2
Sequence of human PHD2 (Q9GZT9 whole entry): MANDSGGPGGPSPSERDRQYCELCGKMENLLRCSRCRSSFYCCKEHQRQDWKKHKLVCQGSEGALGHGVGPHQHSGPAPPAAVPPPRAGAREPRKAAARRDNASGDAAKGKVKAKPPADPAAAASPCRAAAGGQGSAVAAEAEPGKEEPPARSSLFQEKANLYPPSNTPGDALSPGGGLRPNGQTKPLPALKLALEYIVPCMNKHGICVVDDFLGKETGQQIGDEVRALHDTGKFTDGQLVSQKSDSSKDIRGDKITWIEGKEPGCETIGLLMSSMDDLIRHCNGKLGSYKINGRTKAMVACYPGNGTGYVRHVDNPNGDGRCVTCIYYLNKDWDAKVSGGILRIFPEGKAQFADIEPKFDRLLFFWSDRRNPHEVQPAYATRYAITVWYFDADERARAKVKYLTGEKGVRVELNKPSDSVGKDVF
A registered sequence of human PHD2 (NM_022051) was introduced into pcDNA3.1/Hygro(+) vector (Invitrogen), and the sequence was verified. […] The suspension of disrupted cells was centrifuged at 4° C. and 100,000×g for 30 minutes and the supernatant was recovered as a cell lysate.
(2) Measurement of Human PHD2 Inhibitory Activity
The activity of human PHD2 enzyme was measured with a substrate which is a 19-residue partial peptide based on the sequence of HIF-1α; specifically, the hydroxylation of a proline residue in the peptide was measured by FP (Fluorescence Polarization).
A test compound and the substrate solution were preliminarily added onto 384-well plates and reaction was initiated by adding a human PHD2 enzyme solution (40 ng/well). After 20-min incubation at 30° C., an EDTA-containing quench solution was added and the amount of the proline residues hydroxylated via binding to an added HIF—OH antibody solution was quantified by fluorescence polarization.
The fluorescence polarization of each well was measured and the human PHD2 inhibitory activity of each test compound was calculated on the basis of the values for the test compound-free group.

[1] abbreviates: test compound's concentration 1 μM, Test 2, fluorescence polarization assay.

As to `Cc1ccc(Oc2ncc(CN3CCC(O)=C(C(=O)NCC(=O)O)C3=O)cn2)cc1` [Ex. 1-408], the IC50 amounted to 0.072 µM. In addition, under setting [1], the inhibition at 1 µM came to 91%.

For `CC(Cc1ccc(Cl)cc1)N1CCC(O)=C(C(=O)NCC(=O)O)C1=O` (centres unmarked) [Ex. 1-452], the inhibition at 1 µM under setting [1] worked out at 67%. As for `O=C(O)CNC(=O)C1=C(O)CCN(Cc2ccc(OCc3ccccc3)nc2)C1=O` [Ex. 1-380], the inhibition at 1 µM under setting [1] came to 92%. Turning to `CC1(C)CC(O)=C(C(=O)NCC(=O)O)C(=O)N1Cc1ccc(OCC2CC2)nn1` [Ex. 6-33], the inhibition at 1 µM under setting [1] was 68%. Turning to `CC1CC(O)=C(C(=O)NCC(=O)O)C(=O)N1Cc1ccc(OCC2CC2)cc1` (centres unmarked) [Ex. 6-12], the inhibition at 1 µM under setting [1] worked out at 67%. As for `Cc1ccc(-c2ccc(CN3CCC(O)=C(C(=O)NCC(=O)O)C3=O)cc2)s1` [Ex. 2-47], the inhibition at 1 µM under setting [1] is 100%. Still for that read-out and setting: the same measure for `O=C(O)CNC(=O)C1=C(O)CCN(Cc2ccc(OCc3ccc(Cl)cn3)cc2)C1=O` [Ex. 1-405]: 90%; for `O=C(O)CNC(=O)C1=C(O)CCN(C[C@H]2CC[C@H](OCc3ccc(Cl)cc3)CC2)C1=O` [Ex. 1-429]: 96%.

`O=C(O)CNC(=O)C1=C(O)CC2(CCCCC2)N(Cc2ccc(OCC3CC3)cc2)C1=O` [Ex. 6-24]: the inhibition at 1 µM under setting [1] came to 78%. The same measure, in the same setting: the same measure for `O=C(O)CNC(=O)C1=C(O)CCN(C[C@H]2CC[C@H](Oc3ccc(Cl)cc3)CC2)C1=O` [Ex. 1-428]: 100%. In the case of `O=C(O)CNC(=O)C1=C(O)C2(CCCCC2)N(Cc2ccc(-c3ccccc3)cc2)C1=O` [Ex. 1-325], the inhibition at 1 µM under setting [1] was 90%. As to `Nc1ncc(-c2ccc(CN3CCC(O)=C(C(=O)NCC(=O)O)C3=O)cc2)cn1` [Ex. 2-61], the inhibition at 1 µM under setting [1] was 92%. For the compound `Cc1ccc(-c2ccc(CN3CCC(O)=C(C(=O)NCC(=O)O)C3=O)cn2)cc1` [Ex. 2-45], the inhibition at 1 µM under setting [1] was 95%. As for `Cc1cnc(COc2ccc(CN3CCC(O)=C(C(=O)NCC(=O)O)C3=O)cc2)s1` [Ex. 1-406], the inhibition at 1 µM under setting [1] is 86%. As for `O=C(O)CNC(=O)C1=C(O)CCN(Cc2ccc(-c3ccc(Cl)cn3)cc2)C1=O` [Ex. 1-422], the inhibition at 1 µM under setting [1] amounted to 100%. Same read-out and setting: in the case of `O=C(O)CNC(=O)C1=C(O)CCN(Cc2ccc(-c3ccc(C(=O)O)nc3)cc2)C1=O` [Ex. 2-58] it was 92%. On to `O=C(O)CNC(=O)C1=C(O)CC2(CCOCC2)N(Cc2ccc(OCC3CC3)cc2)C1=O` [Ex. 6-13], for which the inhibition at 1 µM under setting [1] was 81%. Still for that read-out and setting: in the case of `O=C(O)CNC(=O)C1=C(O)C2(CCC2)CN(Cc2ccc(OC3CC3)cc2)C1=O` [Ex. 1-363] it was 77%; in that of `O=C(O)CNC(=O)C1=C(O)CCN(Cc2ccc(C(=O)N3CCCCC3)cc2)C1=O` [Ex. 1-321], 84%. As for `Cc1ccc(Oc2cnc(CN3CCC(O)=C(C(=O)NCC(=O)O)C3=O)cn2)cc1` [Ex. 1-385], the IC50 was determined as 0.054 µM. The inhibition at 1 µM under setting [1] worked out at 93%. On to `O=C(O)CNC(=O)C1=C(O)CCN(C[C@H]2C[C@@H](Oc3ccc(Cl)cc3)C2)C1=O` [Ex. 1-456], for which the inhibition at 1 µM under setting [1] was determined as 98%. Still for that read-out and setting: in the case of `CC(C)CN1CCC(O)=C(C(=O)NCC(=O)O)C1=O` [Ex. 1-319] it was 42%; in that of `COc1ccc(CN2CCC(O)=C(C(=O)N[C@H](C)C(=O)O)C2=O)cc1` [Ex. 9-3], 1%; in that of `CN(C)C(=O)c1ccc(-c2ccc(CN3CCC(O)=C(C(=O)NCC(=O)O)C3=O)cc2)cc1` [Ex. 2-32], 85%. On the same count and under the same terms, the same measure for `CC(C)[C@@H]1CC(O)=C(C(=O)NCC(=O)O)C(=O)N1Cc1ccc(OCC2CC2)cc1` [Ex. 6-28]: 42%; for `CC1(C)CC(O)=C(C(=O)NCC(=O)O)C(=O)N1CC1CN(c2ncccn2)C1` [Ex. 6-32]: 4%.

On to `O=C(O)CNC(=O)C1=C(O)CCN(C[C@H]2CC[C@H](OCc3ccc(Cl)cn3)CC2)C1=O` [Ex. 1-464], for which the inhibition at 1 µM under setting [1] is 87%. As to `CS(=O)(=O)c1ccc(CN2CCC(O)=C(C(=O)NCC(=O)O)C2=O)cc1` [Ex. 1-327], under setting [1], the inhibition at 1 µM amounted to 81%. Still for that read-out and setting: the same measure for `O=C(O)CNC(=O)C1=C(O)CCN(Cc2ccc(-c3cccnc3)cn2)C1=O` [Ex. 1-336]: 82%; for `O=C(O)CNC(=O)C1=C(O)CCN(Cc2ccc(COc3ccc(C(F)(F)F)nc3)cc2)C1=O` [Ex. 1-423]: 96%; for `O=C(O)CNC(=O)C1=C(O)C2(CCCCC2)N(Cc2ccc(-c3ccc(Cl)cc3)cc2)C1=O` [Ex. 2-33]: 91%. For the compound `COc1ccnc(-c2ccc(CN3CCC(O)=C(C(=O)NCC(=O)O)C3=O)cc2)c1` [Ex. 1-436], the inhibition at 1 µM under setting [1] worked out at 85%. `O=C(O)CNC(=O)C1=C(O)CN(Cc2ccc(OCC3CC3)cc2)C1=O` [Ex. 6-7]: the inhibition at 1 µM under setting [1] was determined as 86%. Same read-out and setting: the same measure for `O=C(O)CNC(=O)C1=C(O)CC2(COC2)N(Cc2ccc(OCC3CC3)cc2)C1=O` [Ex. 6-14]: 80%.

For `O=C(O)CNC(=O)C1=C(O)CC2(CCNCC2)N(Cc2ccc(-c3ccccc3)cc2)C1=O` [Ex. 1-311], the inhibition at 1 µM under setting [1] is 83%. `CC(C)c1ccc(Oc2ccc(CN3CCC(O)=C(C(=O)NCC(=O)O)C3=O)cn2)cc1` [Ex. 1-378] had an IC50 of 0.014 µM. Also, the inhibition at 1 µM under setting [1] was 98%. As for `Nc1ccc(-c2ccc(CN3CCC(O)=C(C(=O)NCC(=O)O)C3=O)cc2)cn1` [Ex. 2-59], the inhibition at 1 µM under setting [1] was determined as 97%.

Take `O=C(O)CNC(=O)C1=C(O)C2(CCCCC2)N(Cc2ccc(-c3ccc(C(F)(F)F)cc3)cc2)C1=O` [Ex. 1-329]: under setting [1], the inhibition at 1 µM was 87%.

Take `COc1ccc(-c2ccc(CN3CCC(O)=C(C(=O)NCC(=O)O)C3=O)nc2)cc1` [Ex. 2-38]: the inhibition at 1 µM under setting [1] was 92%. For `O=C(O)CNC(=O)C1=C(O)C[C@@H](CO)N(Cc2ccc(OCC3CC3)cc2)C1=O` [Ex. 6-31], the inhibition at 1 µM under setting [1] stood at 44%. The same measure, in the same setting: in the case of `CS(=O)(=O)c1ccc(CN2C(=O)C(C(=O)NCC(=O)O)=C(O)CC23CCCCC3)cc1` [Ex. 1-328] it was 63%; in that of `CC1C(O)=C(C(=O)NCCC(=O)O)C(=O)N1Cc1ccc(-c2ccccc2)cc1` (centres unmarked) [Ex. 6-4], 10%; in that of `Cc1ccc(OCc2ccc(CN3CCC(O)=C(C(=O)NCC(=O)O)C3=O)cc2)cc1` [Ex. 1-417], 99%. `CC1(C)CC(O)=C(C(=O)NCC(=O)O)C(=O)N1CC(=O)NCc1ccc(C(F)(F)F)cc1` [Ex. 10-2]: the inhibition at 1 µM under setting [1] was 6%. On the same count and under the same terms, the same measure for `Cc1cccc(COc2ccc(CN3CCC(O)=C(C(=O)NCC(=O)O)C3=O)cc2)n1` [Ex. 1-373]: 85%; for `O=C(O)CNC(=O)C1=C(O)CCN(Cc2ccc(-c3ccc(C4CC4)cc3)nc2)C1=O` [Ex. 2-48]: 103%; for `O=C(O)CNC(=O)C1=C(O)CCN(Cc2ccc(OCC(=O)O)cc2)C1=O` [Ex. 1-346]: 80%. In the case of `Cc1ccc(O[C@H]2CC[C@H](CN3CCC(O)=C(C(=O)NCC(=O)O)C3=O)CC2)cc1` [Ex. 1-430], under setting [1], the inhibition at 1 µM amounted to 95%.

On to `Cc1ccc(Oc2ccc(CN3CCC(O)=C(C(=O)NCC(=O)O)C3=O)cn2)cc1Cl` [Ex. 1-366], for which the 50% inhibitory concentration (IC50) was found to be 0.019 µM. Also, the inhibition at 1 µM under setting [1] was determined as 103%. With `O=C(O)CNC(=O)C1=C(O)CCN(C(CO)c2ccc(-c3ccc(F)cc3)cc2)C1=O` (centres unmarked) [Ex. 11-1, N-({1-[1-(4′-Fuoro-4-biphenylyl)-2-hydroxyethyl]-4-hydroxy-2-oxo-1,2,5,6-tetrahydro-3-pyridinyl}carbonyl)glycine], under setting [1], the inhibition at 1 µM stood at 96%.

`CS(=O)(=O)c1ccc(-c2ccc(CN3CCC(O)=C(C(=O)NCC(=O)O)C3=O)cc2)cn1` [Ex. 2-56]: the inhibition at 1 µM under setting [1] worked out at 92%.

Regarding `Cc1ccc(O[C@H]2C[C@H](CN3CCC(O)=C(C(=O)NCC(=O)O)C3=O)C2)cc1` [Ex. 1-458], the inhibition at 1 µM under setting [1] was found to be 89%. In the case of `COc1cnccc1-c1ccc(CN2CCC(O)=C(C(=O)NCC(=O)O)C2=O)cc1` [Ex. 2-2, N-({4-Hydroxy-1-[4-(3-methoxy-4-pyridinyl)benzyl]-2-oxo-1,2,5,6-tetrahydro-3-pyridinyl}carbonyl)glycine sodium salt], the inhibition at 1 µM under setting [1] is 98%. Same read-out and setting: the same measure for `O=C(O)CNC(=O)C1=C(O)CCN(Cc2ccc(-c3ccc(C(F)(F)F)cc3)cn2)C1=O` [Ex. 2-40]: 96%; for `O=C(O)CNC(=O)C1=C(O)CCN(Cc2ccc(-c3ccc(F)cc3)nc2)C1=O` [Ex. 2-37]: 91%; for `Cc1ccc(O[C@H]2CC[C@H](CN3CCC(O)=C(C(=O)NCC(=O)O)C3=O)CC2)nc1` [Ex. 1-435]: 87%.

Turning to `O=C(O)CNC(=O)C1=C(O)CCN(Cc2ccc(C3=CCC(F)(F)CC3)cc2)C1=O` [Ex. 1-467, N-({1-[4-(4,4-difluoro-1-cyclohexen-1-yl)benzyl]-4-hydroxy-2-oxo-1,2,5,6-tetrahydro-3-pyridinyl}carbonyl)glycine sodium salt], the inhibition at 1 µM amounted to 95%. `O=C(O)CNC(=O)C1=C(O)CC2(CNC2)N(Cc2ccc(-c3ccccc3)cc2)C1=O` [Ex. 1-313]: the inhibition at 1 µM under setting [1] was determined as 96%. For `CC1(C)CC(O)=C(C(=O)NCC(=O)O)C(=O)N1Cc1cnc(OCC2CC2)cn1` [Ex. 6-35], the inhibition at 1 µM under setting [1] amounted to 60%. Same read-out and setting: the same measure for `Cc1ccc(COc2ccc(CN3CCC(O)=C(C(=O)NCC(=O)O)C3=O)cc2F)cc1` [Ex. 1-387]: 93%; for `O=C(O)CNC(=O)C1=C(O)C(c2ccccc2)N(Cc2ccc(-c3ccccc3)cc2)C1=O` (centres unmarked) [Ex. 1-326]: 71%.
